Legend:
HCV NS5B570n-BK = biological target: T1, HCV NS5B570n-BK (Hepatitis C virus genotype 1b, UniProt P26663); test: HCV NS5B RNA Polymerase Activity; assay type: biochemical, HCV BK strain; conditions: poly A:oligo U16, tritiated UTP, 2 h at 30° C.
T1 construct: histidine tag (N); made in house; host or cells: E. coli strain M15
Description: The enzymatic activity of HCV NS5B570n-BK is measured as incorporation of radiolabeled nucleotide monophosphates into acid insoluble RNA products. Unincorporated radiolabel substrate is removed by filtration and scintillant is added to the washed and dried filter plate containing radiolabeled RNA product. The light emitted by the scintillant is proportional to the amount of RNA product generated by NS5B570n-BK at the endpoint of the reaction.
The N-terminally histidine tagged HCV polymerase, derived from HCV BK strain, genotype 1b (NS5B570n-BK) contains a 21 amino acid deletion at the C-terminus relative to the full-length HCV polymerase and is purified from E. coli strain M15. The construct containing the coding sequence of HCV BK strain amino acid residues 2421-2999 (GenBank accession number M58335) downstream of a Taq promoter expression cassette was inserted into plasmid constructs. The plasmid constructs are transformed in E. coli and colonies are inoculated and grown overnight in 10 L of Terrific broth (Tartoff and Hobbs) supplemented with 100 μg/mL ampicillin at 37° C. Protein expression is induced by addition of 1 mM isopropyl-β-D -thiogalactopyranoside (IPTG), when optical densities reaches between 1.5 and 3.5 OD600 and the culture is then incubated for 16- to 18 h at 22° C. NS5B570n -BK is purified to homogeneity using a three step protocol including subsequent column chromatography on Ni-NTA, SP-Sepharose HP and Superdex 75 resins.
Each 50 μl enzymatic reaction contains 8:4 μg/mL poly A:oligo U16 (template:primer), 200 nM NS5B570n-BK enzyme, 2.1 μCi of tritiated UTP (Perkin Elmer catalog no. TRK -412; specific activity: 30 to 60 Ci/mmol; stock solution concentration from 7.5×10^−5 M to 20.6×10^−6 M), 1 μM ATP, CTP, and GTP, 40 mM Tris-HCl pH 8.0, 2 to 40 mM NaCl, 4 mM DTT (dithiothreitol), 4 mM MgCl2, and 5 μl of compound serial diluted in DMSO. Reaction mixtures are assembled in MADVN0B 96-well filter plates (Millipore Co.) and incubated for 2 h at 30° C. Reactions are stopped by addition of 10% (v/v) trichloroacetic acid and incubated for 40 min at 4° C. Reactions are filtered, washed with 6 reaction volumes of 10% (v/v) trichloroacetic acetic acid, 2 reaction volumes of 70% (v/v) ethanol, air dried, and 25 μl of scintillant (Microscint 20, Perkin-Elmer) is added to each reaction well.
The amount of light emitted from the scintillant is converted to counts per minute (CPM) on a Topcount® plate reader (Perkin-Elmer, Energy Range: Low, Efficiency Mode: Normal, Count Time: 1 min, Background Subtract: none, Cross talk reduction: Off).
Data is analyzed with GraphPad® Prism® and/or Microsoft® Excel®. The reaction in the absence of enzyme is used to determine the background signal, which is subtracted from the enzymatic reactions. Positive control reactions are performed in the absence of compound, from which the background corrected activity is set as 100% polymerase activity. All data is expressed as a percentage of the positive control. The compound concentration at which the enzyme-catalyzed rate of RNA synthesis is reduced by 50% (IC50) is calculated by fitting equation (i) to
[formula] the data, where “Y” corresponds to the relative enzyme activity (in %), “% Min” is the residual relative enzymatic activity at saturating compound concentration, “% Max” is the maximal relative enzymatic activity compared to positive control, X corresponds to the compound concentration, and “S” is the Hill coefficient (or slope). […]

[1] = tested on: Renilla luciferase HCV replicon cells (2209-23); test: Renilla luciferase Assay (HCV replicon); assay type: cell-based, HCV; human hepatoma Huh7 cells; conditions: 72 h; replicon cell line 2209-23, three days incubation; read-out: R. luciferase Activity IC50
HCV = conditions: cited from earlier work

T1 sequence (P26663 2421-2999): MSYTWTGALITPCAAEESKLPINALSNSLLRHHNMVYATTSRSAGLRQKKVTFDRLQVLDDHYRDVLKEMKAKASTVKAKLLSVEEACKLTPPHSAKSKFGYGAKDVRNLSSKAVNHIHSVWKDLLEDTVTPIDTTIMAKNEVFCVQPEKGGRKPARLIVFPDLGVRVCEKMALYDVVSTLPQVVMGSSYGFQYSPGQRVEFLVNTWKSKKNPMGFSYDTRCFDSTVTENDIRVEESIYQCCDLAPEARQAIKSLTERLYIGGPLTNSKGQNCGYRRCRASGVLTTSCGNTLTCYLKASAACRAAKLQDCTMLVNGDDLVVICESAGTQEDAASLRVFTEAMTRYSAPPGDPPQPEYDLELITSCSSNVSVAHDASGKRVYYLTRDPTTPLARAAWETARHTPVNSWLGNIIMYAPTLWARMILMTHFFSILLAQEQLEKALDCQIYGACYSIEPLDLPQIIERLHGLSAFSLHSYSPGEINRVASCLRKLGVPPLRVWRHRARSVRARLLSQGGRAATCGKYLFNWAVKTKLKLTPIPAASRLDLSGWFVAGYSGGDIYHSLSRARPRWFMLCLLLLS

Row | melting point [°C] | SMILES | IC50 [1] [nM] | further results
1 | 206 to 209 | CC(C)CCc1nc(C2=NS(=O)(=O)c3ccccc32)c(O)c2ccccc12 |  | 
2 | > 275 | O=S1(=O)N=C(c2nc(Cc3ccc(F)cc3)c3ccc(F)cc3c2O)c2cccc(Cl)c21 |  | 
3 | 194 to 196 | COc1ccc(-c2cccc3c2S(=O)(=O)N=C3c2nc(Cc3ccc(F)cc3)c3ccccc3c2O)cn1 |  | 
4 | 235 to 238 | O=C1C(C2=NS(=O)(=O)c3ccccc32)=C(O)[C@H](C2CCCCC2)N1Cc1ccc(F)cc1.[Na] |  | 
5 | 85 to 92 | O=C1C(C2=NS(=O)(=O)c3ccccc32)=C(O)[C@H](Cc2ccccc2)N1Cc1ccc(F)cc1 |  | 
6 | 102 to 105 | CC(C)(C)[C@H]1C(O)=C(C2=NS(=O)(=O)c3c(CNS(=O)(=O)C4CC4)cccc32)C(=O)N1Cc1ccc(F)cc1 |  | 
7 | 224 to 230 | CC(C)(C)[C@H]1C(O)=C(C2=NS(=O)(=O)c3c(CN4CCCS4(=O)=O)cccc32)C(=O)N1Cc1ccc(F)cc1 |  | 
8 | 185 to 190 | CN(C)C(=O)CNc1cccc2c1S(=O)(=O)N=C2C1=C(O)[C@H](C(C)(C)C)N(Cc2ccc(F)cc2)C1=O |  | 
9 | 245 to 250 | CC(C)(C)[C@H]1C(O)=C(C2=NS(=O)(=O)c3c(NS(C)(=O)=O)cccc32)C(=O)N1Cc1ccc(F)cc1 |  | 
10 | > 210 | CNC(=O)COc1cccc2c1S(=O)(=O)N=C2C1=C(O)[C@H](C(C)(C)C)N(Cc2ccc(F)cc2)C1=O |  | 
11 | 138 to 159 | CC(C)(C)[C@H]1C(O)=C(C2=NS(=O)(=O)c3c(CNS(C)(=O)=O)cccc32)C(=O)N1Cc1ccc(F)c(Br)c1 |  | 
12 |  | Cc1cc(CN2C(=O)C(C3=NS(=O)(=O)c4c(CNS(C)(=O)=O)cccc43)=C(O)C2C(C)(C)C)ccc1F (stereo not drawn) [II-38, N-{3-[5-tert-Butyl-1-(4-fluoro-3-methyl-benzyl)-4-hydroxy-2-oxo-2,5-dihydro-1H-pyrrol-3-yl]-1,1-dioxo-1H-1λ^6-benzo[d]isothiazol-7-ylmethyl}-methanesulfonamide] | 35 | 
13 |  | CC(C)(C)[C@H]1C(O)=C(C2=NS(=O)(=O)c3c(CNS(N)(=O)=O)cccc32)C(=O)N1Cc1ccc(F)cc1 [II-41, Amino-sulfonic acid {3-[(S)-5-tert-butyl-1-(4-fluoro-benzyl)-4-hydroxy-2-oxo-2,5-dihydro-1H-pyrrol-3-yl]-1,1-dioxo-1H-1λ^6-benzo[d]isothiazol-7-ylmethyl}-amide] | 58 | 
14 |  | CC(C)(C)[C@H]1C(O)=C(C2=NS(=O)(=O)c3c(OCS(N)(=O)=O)cccc32)C(=O)N1Cc1ccc(F)cc1 [II-64, {3-[(S)-5-tert-Butyl-1-(4-fluoro-benzyl)-4-hydroxy-2-oxo-2,5-dihydro-1H-pyrrol-3-yl]-1,1-dioxo-1H-1λ^6-benzo[d]isothiazol-7-yloxy}-methanesulfonamide] | 228 | 
15 |  | Cc1cc(CN2C(=O)C(C3=NS(=O)(=O)c4c(CN(C)S(C)(=O)=O)cccc43)=C(O)[C@@H]2C(C)(C)C)ccc1F [II-77, N-{3-[(S)-5-tert-Butyl-1-(4-fluoro-3-methyl-benzyl)-4-hydroxy-2-oxo-2,5-dihydro-1H-pyrrol-3-yl]-1,1-dioxo-1H-1λ^6-benzo[d]isothiazol-7-ylmethyl}-N-methyl-methanesulfonamide] | 129 | 
16 |  | NC(=O)c1ncn([C@@H]2O[C@H](CO)[C@@H](O)[C@H]2O)n1 [ribavirin, 1-((2R,3R,4S,5R)-3,4-dihydroxy-5-hydroxymethyl-tetrahydro-furan-2-yl)-1H-[1,2,4]triazole-3-carboxylic acid amide] |  | effect on serum levels of HCV-RNA (HCV; monotherapy / sole treatment): does not lower serum levels of HCV-RNA; patients in whom serum amino transferase levels are reduced to normal (HCV; monotherapy): 40%

Row | SMILES | melting point [°C] | IC50 [1] [nM] | further results
17 | CC(C)(C)C1C(O)=C(C2=NS(=O)(=O)c3c(O)cccc32)C(=O)N1Cc1ccc(F)cc1 (stereo not drawn) [II-6, 5-tert-Butyl-1-(4-fluoro-benzyl)-4-hydroxy-3-(7-hydroxy-1,1-dioxo-1H-1λ^6-benzo[d]isothiazol-3-yl)-1,5-dihydro-pyrrol-2-one] | > 250 | 3260 | IC50 (HCV NS5B570n-BK): 52 nM
18 | Cc1cc(CN2C(=O)C(C3=NS(=O)(=O)c4ccccc43)=C(O)[C@@H]2C(C)(C)C)ccc1F [II-15, (S)-5-tert-Butyl-3-(1,1-dioxo-1H-1λ^6-benzo[d]isothiazol-3-yl)-1-(4-fluoro-3-methyl-benzyl)-4-hydroxy-1,5-dihydro-pyrrol-2-one] | 105 to 111 | 125 | IC50 (HCV NS5B570n-BK): 138 nM
19 | CC(C)(C)[C@H]1C(O)=C(C2=NS(=O)(=O)c3c(CNS(C)(=O)=O)cccc32)C(=O)N1Cc1ccc(F)cc1 [II-23, N-{3-[(S)-5-tert-Butyl-1-(4-fluoro-benzyl)-4-hydroxy-2-oxo-2,5-dihydro-1H-pyrrol-3-yl]-1,1-dioxo-1H-1λ^6-benzo[d]isothiazol-7-ylmethyl}-methanesulfonamide] | 105 to 128 | 56 | IC50 (HCV NS5B570n-BK): 76 nM
20 | CC(C)(C)[C@H]1C(O)=C(C2=NS(=O)(=O)c3ccccc32)C(=O)N1Cc1ccc(F)c(Cl)c1 [II-31, (S)-5-tert-Butyl-1-(3-chloro-4-fluoro-benzyl)-3-(1,1-dioxo-1H-1λ^6-benzo[d]isothiazol-3-yl)-4-hydroxy-1,5-dihydro-pyrrol-2-one] | 81 to 96 | 288 | IC50 (HCV NS5B570n-BK): 208 nM
21 | CN(Cc1cccc2c1S(=O)(=O)N=C2C1=C(O)C(C(C)(C)C)N(Cc2ccc(F)cc2)C1=O)S(C)(=O)=O (stereo not drawn) [II-35, N-{3-[5-tert-Butyl-1-(4-fluoro-benzyl)-4-hydroxy-2-oxo-2,5-dihydro-1H-pyrrol-3-yl]-1,1-dioxo-1H-1λ^6-benzo[d]isothiazol-7-ylmethyl}-N-methyl-methanesulfonamide] | 115 to 125 | 108 | IC50 (HCV NS5B570n-BK): 154 nM
22 | CC(C)(C)[C@H]1C(O)=C(C2=NS(=O)(=O)c3c(OCS(C)(=O)=O)cccc32)C(=O)N1Cc1ccc(F)cc1 [II-81, (S)-5-tert-Butyl-1-(4-fluoro-benzyl)-4-hydroxy-3-(7-methanesulfonylmethoxy-1,1-dioxo-1H-1λ^6-benzo[d]isothiazol-3-yl)-1,5-dihydro-pyrrol-2-one] | 143 to 151 | 235 | 
23 | CC(C)(C)[C@H]1C(O)=C(C2=NS(=O)(=O)c3c(CNS(=O)(=O)N4CCNCC4)cccc32)C(=O)N1Cc1ccc(F)cc1.O=C(O)C(F)(F)F [II-91, Piperazine-1-sulfonic acid {3-[(S)-5-tert-butyl-1-(4-fluoro-benzyl)-4-hydroxy-2-oxo-2,5-dihydro-1H-pyrrol-3-yl]-1,1-dioxo-1H-1λ^6-benzo[d]isothiazol-7-ylmethyl}-amide; compound with trifluoro-acetic acid] | 95 to 115 | 143 | 

Reference: patent US7674810B2, “1,1-dioxo-1H-1Λ6-benzo[d]isothiazol-3-yl)-4-hydroxy-1,5-dihydro-pyrrol-2-one inhibitors of HCV polymerase” (Roche Palo Alto LLC, priority 2006, dated 2010)
